SMILES strings stand for the structures. “And” between values parts separate entries of the source, which are not always exact repeats. Equal values may be shown once. Where a name gives a salt, the structure may show the parent alone. Read-outs that look alike come from different tables or passages of the source.

This is an account of results in patent US12538922B2, “Composition and methods for parasite control” (priority 2019, dated 2026).

Data set [1] has as its system adult Aedes aegypti mosquitoes. Put plainly: Mosquito repellency assay (landings and time on warm treated surface). The data set is classed as in vivo. The note with it: for Mean probing time [%, compared to control]: 100% = same time as on vehicle-treated surface; for Repellency, % reduction in landings vs vehicle control: repellency as percentage reduction of control, 100% = no landings. The protocol: The compound of the invention is mixed with ethanol to make a composition that can be applied to a surface and allowed to dry. After the surface is treated with the compounds of the invention and dried, it is heated to human body temperature, and the number of landings and the total time spent by the mosquitoes on the warm surface by adult Aedes aegypti mosquitoes is recorded automatically by machine vision to measure repellency of each compound.
Repellency (based on the number of individual landings on the warm surface) is expressed as a percentage reduction of the control, where the average number of mosquitoes landing on a warm surface treated only with the vehicle solvent is counted. 100% means no mosquitoes landed on the warm surface.
For mosquitoes that still landed on the warm surface, the time spent on the warm surface is also recorded and expressed as a percentage of the control, corresponding to the average time that mosquitoes spent on the same warm surface when treated only with the vehicle solvent. 100% mean that the mosquitoes spent the same time on the treated warm surface as on a warm surface treated only with the vehicle solvent.
Each compound/dose is tested in triplicate using a surface of 18.9 cm2 and 100 microliters of solution without the compound (the placebo) or with the compound dilution spread on the surface, and allowed to dry before the test. The average and standard error on triplicates is calculated. The control (using only vehicle solvent) is run with ethanol. The same population of mosquitoes is exposed first to the warm surface treated with the vehicle solvent, then to the surface treated with the compound. The concentration of the solution comprising the test compound was adjusted to ensure the treatment dosage of the compound is according to the final concentration per surface units area in the table.

Data set [2] concerns R. sanguineus tick larvae. The note with it: for Repellence Median (Q1-Q3) [%] / Knockdown Median (Q1-Q3) [%]: pure compound; for Repellence Median (Q1-Q3) [%]: median of replicates; for Knockdown Median (Q1-Q3) [%]: motility reduction over 9 min; for Knockdown Minimum effective concentration / Repellence Minimum effective concentration: smallest concentration with median activity above 50% significance limit. The protocol: FIG. 1 Schematic representation of the tick repellent test. 30-60 tick larvae are deposited in the non-treated area of a circular arena (8.96 cm^2) whereby one quadrant of the surface (2.25 cm^2) is treated. After 1 minute, the distribution of ticks in the treated and untreated areas is measured for a duration of 2 minutes. The repellent/deterrent effect is expressed in %: 100% means that ticks completely avoided the treated surface. Toxicity is measured in the same setup over a duration of 8 minutes and the mortality is expressed in % motility reduction between the beginning and the end of the 8 minutes. Dosages are expressed as a quantity (mg or molarity) per surface unit (m^2), as the compound or extract is deposited at the bottom of the well. Pure compounds: dose given in micromoles/m^2; Extracts: dose given in micrograms/m^2. Tests were run in triplicates.
The assay is used to evaluate the repellent/deterrent potential of a test compound or extract. The test includes a preliminary assessment of knockdown efficacy as a secondary endpoint. Knockdown can be defined as a state of intoxication and paralysis that usually precedes death (Wickham et al. (1974) Pesticide Science 5(5): 657-664). The test relies on the questing behavior of ticks that explore their habitat to find a suitable host hunting site and their propensity to avoid areas treated with repellent or irritating substances. Tick knockdown is expressed as a reduction in total motility over a defined period of time, and not by collecting and counting the number of dead and live ticks at the end of the exposure period.
Plant extracts or synthetic pure alkaloids diluted in methanol (extracts) or ethanol (alkaloids) were deposited on the bottom of wells in a six-well plate. Only one quadrant ([…]) of the bottom surface of each well was treated. The solvent was left to evaporate. The final concentration of the plant extracts was, therefore, expressed in mg/m^2, or in micromoles per square meter (μmol/m^2) for the synthetic alkaloids. Final concentrations applied for plant extracts were 893 (R. sanguineus adults only), 446, 141, 44.6, 14.1, and 4.46 mg/m^2, and 300, 100, 30, 10, and 3 μmol/m^2 for pure alkaloids. Approximately 50 R. sanguineus tick larvae, and exactly 5 R. sanguineus adults, or 5 I. ricinus nymphs were added to the untreated area of each well. Positive (DEET, commercial tick repellent) and negative (methanol or ethanol) controls were evaluated in parallel. Each concentration tested was run in three or more test replicates. After a 1-min incubation on a heating plate, the frequency of tick movement in the treated quadrant and in each of the untreated quadrants was recorded by machine vision. Tick movement on the untreated surface was computed as the median of movement on the three untreated quadrants. To estimate deterrence recordings were performed over a period of 2 min for R. sanguineus larvae, and for 3 minutes for R. sanguineus adults and I. ricinus nymphs, after the 1-min pre-exposure period. To assess knockdown effect, recording was extended to 9 min (starting at the 1-min pre-exposure period and lasting an additional 8 minutes).
Deterrence activity was calculated as follows: Percent deterrence=1−(movements on treated area/movements on untreated area)×100.
A difference of 50% between total movements recorded in the treated area versus movements recorded in the untreated area was considered significant.
The tick knockdown effect was calculated similarly: Percent knockdown=1−(movements at the end of the imaging period/movements at the beginning of the imaging period)×100.
A difference of 50% between total movements recorded during the 1 min pre-exposure and total movements measured at 9 min of recording was considered significant.

Setting [3] is: Table 5, N = 3 subset of Table 4.
Setting [4] is: Table 5, N = 3 subset of Table 4, dose 3.
[5] abbreviates: Table 5, N = 3 subset of Table 4, dose 30.
Setting [6] is: Table 5, N = 3 subset of Table 4, dose 300.
The mark [7] stands for this setting: concentration 100 μmol/m^2, dihydrochloride.

On to `C1=CC[C@H](c2cccnc2)NC1` (single isomer, unassigned) [R enantiomer base, R-(+) anatabine], for which, in data set [1] (dose 75 μmol/m^2), the “Mean probing time [%, compared to control]” value is listed as 29.0% and the “Repellency, % reduction in landings vs vehicle control” value (“Repellency, % reduction in landings” below) was found to be 68.9%. In addition, in data set [1] (dose 380 μmol/m^2), the “Mean probing time [%, compared to control]” value was found to be 2.7% and the “Repellency, % reduction in landings” value is 77.9%.
`C1=CC[C@@H](c2cccnc2)NC1` (single isomer, unassigned) [S enantiomer base, S-(−) anatabine]: in data set [1] (dose 75 μmol/m^2), the “Mean probing time [%, compared to control]” value was found to be 20.6% and the “Repellency, % reduction in landings” value is 86.5%. In addition, in data set [1] (dose 380 μmol/m^2), the “Mean probing time [%, compared to control]” value was 1.6% and the “Repellency, % reduction in landings” value amounted to 90.0%.
On to `C1=CC[C@H](c2cccnc2)NC1` [(R)-anatabine dihydrochloride], for which the “MEC (μmol/m^2)” value in data set [2] (setting [3]) was determined as 30 μmol/m^2. Also, the “% repellency” value in data set [2] (setting [4]) worked out at 0%; in data set [2] (setting [5]) it was 62%; in data set [2] (setting [6]), 97%. The “% mortality” value in data set [2] (setting [6]) is recorded as 24%. Also, the “Repellence Median (Q1-Q3) [%]” value worked out at 20.8% in data set [2] (concentration 3 μmol/m^2); 34.4% in data set [2] (concentration 10 μmol/m^2, dihydrochloride); 34% in data set [2] (concentration 10 μmol/m^2, listed as (R)-anatabine, dihydrochloride); 62.0% in data set [2] (concentration 30 μmol/m^2, dihydrochloride); 62% in data set [2] (concentration 30 μmol/m^2, listed as (R)-anatabine, dihydrochloride); 84.3% in data set [2] (setting [7]). Besides, the “Repellence Median (Q1-Q3) [%]” value in data set [2] (concentration 100 μmol/m^2, listed as (R)-anatabine, dihydrochloride) came to 84%; in data set [2] (concentration 300 μmol/m^2), 88.3%. The “Knockdown Median (Q1-Q3) [%]” value was 0% in data set [2] (concentration 3 μmol/m^2); 7.5% in data set [2] (concentration 10 μmol/m^2); 11.1% in data set [2] (concentration 30 μmol/m^2); 54.5% in data set [2] (setting [7]); 52.7% in data set [2] (concentration 300 μmol/m^2, dihydrochloride). For the same compound, in data set [2], the “Knockdown Minimum effective concentration” value was determined as 100 μmol/m^2. The “Repellence Minimum effective concentration” value in data set [2] (dihydrochloride) amounted to 30 μmol/m^2. The “Mean probing time [%, compared to control]” value in data set [1] (dose 380 μmol/m^2) turned out to be 128.9%; in data set [1] (dose 760 μmol/m^2), 48.5%. In addition, the “Repellency, % reduction in landings” value in data set [1] (dose 380 μmol/m^2) worked out at 8.1%; in data set [1] (dose 760 μmol/m^2) it was 42.9%.
For the compound `c1cncc([C@@H]2CCCCN2)c1` [(S)-anabasine], the “MEC (μmol/m^2)” value in data set [2] (setting [3]) is >300 μmol/m^2. Moreover, the “% mortality” value in data set [2] (setting [6]) was 14%. In data set [2] (setting [6]), the “% repellency” value was determined as 9%. Also, the “Repellence Median (Q1-Q3) [%]” value in data set [2] (concentration 3 μmol/m^2) is 6.6%; in data set [2] (concentration 10 μmol/m^2), 42.4%; in data set [2] (concentration 30 μmol/m^2), 46.9%; in data set [2] (concentration 100 μmol/m^2), 58%; in data set [2] (concentration 300 μmol/m^2) it was 40.5%. Further, the “Knockdown Median (Q1-Q3) [%]” value is 0% in data set [2] (concentration 3 μmol/m^2); 6.9% in data set [2] (concentration 10 μmol/m^2); 10.4% in data set [2] (concentration 30 μmol/m^2); 6.0% in data set [2] (concentration 100 μmol/m^2); 9.5% in data set [2] (concentration 300 μmol/m^2). Also, in data set [2], the “Knockdown Minimum effective concentration” value is >300 μmol/m^2.
For the compound `CN1CCC[C@H]1c1cccnc1` [(S)-nicotine], the “Knockdown Median (Q1-Q3) [%]” value in data set [2] (concentration 3 μmol/m^2) was 3.4%; in data set [2] (concentration 10 μmol/m^2), 1.3%; in data set [2] (concentration 30 μmol/m^2), 26.4%; in data set [2] (concentration 100 μmol/m^2), 37% and 37.1%; in data set [2] (concentration 300 μmol/m^2), 95% and 94.5%. In addition, in data set [2], the “Knockdown Minimum effective concentration” value is listed as 300 μmol/m^2.
Consider `c1cncc([C@@H]2CCCN2)c1` [(S)-nornicotine], for which, in data set [2] (setting [3]), the “MEC (μmol/m^2)” value is reported as 300 μmol/m^2. The “% mortality” value came to 11% in data set [2] (setting [5]) and 49% in data set [2] (setting [6]). Moreover, the “% repellency” value in data set [2] (setting [5]) was 5%; in data set [2] (setting [6]), 70%. For the same compound, the “Repellence Median (Q1-Q3) [%]” value is 12.3% in data set [2] (concentration 3 μmol/m^2); 35.3% in data set [2] (concentration 10 μmol/m^2); 27.9% in data set [2] (concentration 30 μmol/m^2); 42.2% in data set [2] (concentration 100 μmol/m^2); 81% and 81.1% in data set [2] (concentration 300 μmol/m^2). Besides, the “Knockdown Median (Q1-Q3) [%]” value in data set [2] (concentration 3 μmol/m^2) was 0.7%; in data set [2] (concentration 10 μmol/m^2), 0.4%; in data set [2] (concentration 30 μmol/m^2), 9.9%; in data set [2] (concentration 100 μmol/m^2), 9%; in data set [2] (concentration 300 μmol/m^2), 18.7%. In addition, the “Knockdown Minimum effective concentration” value in data set [2] is given as >300 μmol/m^2. Besides, in data set [2], the “Repellence Minimum effective concentration” value is 300 μmol/m^2.
As for `CCN(CC)C(=O)c1cccc(C)c1` [DEET, N,N-Diethyl-m-toluamide], the “% repellency” value was 27% in data set [2] (setting [4]); 26% in data set [2] (setting [5]); 100% in data set [2] (setting [6]); 81.6% in data set [2] (positive control, dose 8.5 (mg/m^2)). Also, in data set [2] (in vivo), the “% mortality” value is given as 11%. For the same compound, the “Repellence Median (Q1-Q3) [%]” value in data set [2] (concentration 3 μmol/m^2) was 31.1%; in data set [2] (concentration 10 μmol/m^2), 57% and 57.3%; in data set [2] (concentration 30 μmol/m^2), 64% and 63.9%; in data set [2] (concentration 100 μmol/m^2), 75.7%; in data set [2] (concentration 300 μmol/m^2) it was 100%. Besides, the “Knockdown Median (Q1-Q3) [%]” value in data set [2] (concentration 3 μmol/m^2) is recorded as 0.7%; in data set [2] (concentration 10 μmol/m^2) it was 10.0%; in data set [2] (concentration 30 μmol/m^2) it was 2.4%; in data set [2] (concentration 100 μmol/m^2), 5.2%; in data set [2] (concentration 300 μmol/m^2) it was 11.1%. Further, the “Knockdown Minimum effective concentration” value in data set [2] was >300 μmol/m^2. Besides, the “Repellence Minimum effective concentration” value in data set [2] amounted to 10 μmol/m^2. For the same compound, the “MEC (Repellency) (mg/m^2)” value in data set [2] (tobacco extracts and DEET positive control) is 8.5 mg/m^2.
On to `C1=CCC(c2cccnc2)NC1` (centres unmarked) [anatabine], for which, in data set [1] (in vivo), the “mosquito repellency, base form compared with HCl salt form” value was “significantly better mosquito repellent than in the HCl salt form” and the “time spent by mosquitoes on treated surface, base form compared with HCl salt form” value is “much shorter time”.
